# Measurements published in patent publication US7659366B2, “Peptide with putative role in cytoskeletal protection” (priority 2005, dated 2010).
# Numbered stars: 1 amine (or outer) side, 2 acyl side, 3 side chain; on linkers, the order of the positions; unused ones are H or OH. Bridge positions count the residues as written; N and C are the ends. Square brackets hold non-standard residues; d marks the D form. Peptide text beside a SMILES is read from it. Trp(2-yl) = O=C([C@H](Cc1c([*:3])[nH]c2ccccc12)N[*:1])[*:2]; Leu(4R-OH,5-OH) = C[C@](O)(CO)C[C@H](N)C(=O)O; cisHyp = O=C(O)[C@@H]1C[C@H](O)CN1
# Molecular target: T1, G-actin (pyrene-labeled) (Oryctolagus cuniculus, UniProt P68135)
# T1 construct: purchased Cytoskeleton, Inc., Colorado
# Assay: In vitro polymerization of pyrene-labeled G-actin
# Type: biochemical
# Settings: buffer G with 1 mM MgCl2; conjugate 50 μg/ml, phalloidin 4 μM
# Experimental: In vitro polymerization of G-actin was performed according to the method of Maul and coworkers (Maul et al., 2003).
# This in vitro assay is based on the enhanced fluorescence of pyrene-conjugated actin that occurs during polymerization in vitro.
# For conducting the polymerization assay, general actin buffer containing pyrene actin and ATP was added to the wells. Then polymerization buffer, samples (P34 free peptide, P33 free peptide, P34BSA and P33BSA), and phalloidin (as positive control) were added to the wells. Then fluorescence intensity was read with a spectrophotometer (Excitation: 360 nm; Emission: 410 nm). The reading was done for 15 minutes with intervals of 30 seconds.
# For the assay to determine inhibition of polymerization, all the wells contained polymerization buffer to initiate polymerization. […]
# As mentioned above, in vitro polymerization of G-actin was performed according to the method of Maul and coworkers (Maul et al., 2003). […] 5 μl samples were applied on a microscope slide, and examined by fluorescence microscopy.
# P34BSA was tested for the capacity to inhibit or induce actin polymerization. […] The fluorescence intensity of the mixture was read with a microplate fluorescence reader (FL600, Bio-Tek®; Ex. 360 nm, +/−20 nm bandwidth; Em. 410 nm, +/−10 nm bandwidth). The emissions were recorded for 15 min at 30 sec intervals. […]
smiles,measurement,value
"C[C@@H]1NC(=O)[C@H](C[C@@](C)(O)CO)NC(=O)[C@@H]2Cc3c([nH]c4ccccc34)SC[C@H](NC(=O)[C@@H]([C@H](C)O)NC1=O)C(=O)N1C[C@@H](O)C[C@H]1C(=O)N[C@@H](C)C(=O)N2 [phalloidin] (cyclo(A[dT]C[cisHyp]A[Trp(2-yl)][Leu(4R-OH,5-OH)]); thioether 3-6)",induction of actin polymerization,able to promote polymerization
